Columns and labels:
[1] = system: SAGPY (Arrowhead (Pygmaea)); experiment: Preemergence weed control under flooded paddy conditions; format: in vivo, Sagittaria pygmaea; conditions: rated 3-4 weeks after treatment
Summary of the method: (§1)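 Greenhouse paddy assay. Acetone/water (50/50 v/v) solutions dosed into flood water, equivalent to about 0.0313 to 0.500 kg/ha active ingredient, over seeds planted 0.5 cm deep in silt loam. Score: 0-9 visual, based on stand, vigor, malformation, size and chlorosis, 3 to 4 weeks after treatment.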

[2] = system: GLXMAW (Soybean, Williams); experiment: Preemergence herbicidal evaluation; format: in vivo, Glycine max, (L.) Merr. cv Williams; conditions: rated 4-5 weeks after treatment
Summary of the method: (§2)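 Sown cups got a single aqueous acetone spray of test compound (roughly 0.0156–0.500 kg/ha) before seedlings emerged. Evaluation, 4–5 weeks on, used a 0–9 visual scale covering plant stand, vigor, size, malformation, chlorosis and general appearance compared with controls.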

[3] = system: CYPIR (Rice Flatsedge); experiment: Preemergence weed control under flooded paddy conditions; format: in vivo, Cyperus iria; conditions: rated 3-4 weeks after treatment
Summary of the method: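 First, seeds or propagules go into the top 0.5 cm of silt loam; next, water is held 1.5 to 3 cm over the soil; then compound (50/50 acetone/water) is pipetted into it at about 0.0313 to 0.500 kg/ha; finally plants are rated visually 0-9 after three to four weeks.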

[4] = system: MOOVA (Monochoria); experiment: as above; format: in vivo, Monochoria vaginalis; conditions: rated 3-4 weeks after treatment
Summary of the method: as §1

[5] = system: ECHCG (Barnyardgrass); experiment: Postemergence herbicidal evaluation; format: in vivo, Echinochloa crus-galli; conditions: postemergence
Summary of the method: (§3)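 First, seedlings were raised for around two weeks. Next, test material in 50/50 acetone/water containing 0.5% TWEEN 20 was sprayed through a nozzle at 40 psi, equivalent to about 0.0156–0.500 kg/ha. Finally, after 4–5 weeks in the greenhouse, plants were rated 0–9.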

[6] = system: TRZAWR (Wheat, Winter, cv Riband); experiment: Preemergence herbicidal evaluation; format: in vivo, Triticum aestivum; conditions: rated 4-5 weeks after treatment
Summary of the method: as §2

[7] = system: CASOB (Sicklepod); experiment: Postemergence herbicidal evaluation; format: in vivo, Cassia obtusifolia; conditions: postemergence
Summary of the method: as §3

[8] = system: ORYSAT (Rice, Tebonnet); experiment: Postemergence herbicidal evaluation; format: in vivo, Oryza sativa, (L.) Tebonnet; conditions: postemergence
Summary of the method: as §3

[9] = system: ZEAMX (Corn, Field); experiment: Preemergence herbicidal evaluation; format: in vivo, Zea mays; conditions: rated 4-5 weeks after treatment
Summary of the method: as §2

[10] = system: CHEAL (Lambsquarters, Common); experiment: Postemergence herbicidal evaluation; format: in vivo, Chenopodium album; conditions: postemergence
Summary of the method: as §3

[11] = system: ORYSAT (Rice, Tebonnet); experiment: Preemergence herbicidal evaluation; format: in vivo, Oryza sativa, (L.) Tebonnet; conditions: rated 4-5 weeks after treatment
Summary of the method: as §2

[12] = system: GALAP (Galium); experiment: Preemergence herbicidal evaluation; format: in vivo, Galium aparine; conditions: rated 4-5 weeks after treatment
Summary of the method: as §2

[13] = system: CYPSE (Flatsedge); experiment: Postemergence weed control under flooded paddy conditions; format: in vivo, Cyperus serotinus; conditions: postemergence weeds, 3-4 weeks after treatment
Summary of the method: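 Injury ratings (0–9 scale covering stand, vigor, malformation, size, chlorosis and overall appearance versus control) were made three to four weeks after treatment. Test material, about 0.0313 to 0.500 kg/ha a.i. in 50/50 v/v aqueous/acetone, was added to flood water 1.5 to 3 cm deep over 3 to 5 cm weeds and 1.5 to 2.5 leaf rice.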

[14] = system: SETVI (Foxtail, Green); experiment: Preemergence herbicidal evaluation; format: in vivo, Setaria viridis; conditions: rated 4-5 weeks after treatment
Summary of the method: as §2

C=CCN1C(=O)CSC1=Nc1cc(-n2c(=O)cc(C(F)(F)F)n(C)c2=O)c(F)cc1Cl [Compound 27]
Herbicidal rating SAGPY ([1]; 0.0313 kg/ha): 0.0
Herbicidal rating SAGPY ([1]; 0.0625 kg/ha): 0.0
Herbicidal rating SAGPY ([1]; 0.1250 kg/ha): 4.0
Herbicidal rating SAGPY ([1]; 0.2500 kg/ha): 4.0
Preemergence herbicidal rating GLXMAW ([2]; rate 0.0156 kg/ha): 0.0
Preemergence herbicidal rating GLXMAW ([2]; rate 0.0313 kg/ha): 0.0
Preemergence herbicidal rating GLXMAW ([2]; rate 0.0625 kg/ha): 9.0
Preemergence herbicidal rating GLXMAW ([2]; rate 0.1250 kg/ha): 9.0
Preemergence herbicidal rating GLXMAW ([2]; rate 0.2500 kg/ha): 7.0
Herbicidal rating CYPIR ([3]; 0.0313 kg/ha): 3.0
Herbicidal rating CYPIR ([3]; 0.0625 kg/ha): 4.0
Herbicidal rating CYPIR ([3]; 0.1250 kg/ha): 6.0
Herbicidal rating CYPIR ([3]; 0.2500 kg/ha): 9.0
Herbicidal rating MOOVA ([4]; 0.0313 kg/ha): 9.0
Herbicidal rating MOOVA ([4]; 0.0625 kg/ha): 9.0
Herbicidal rating MOOVA ([4]; 0.1250 kg/ha): 9.0
Herbicidal rating MOOVA ([4]; 0.2500 kg/ha): 9.0
ECHCG herbicidal rating ([5]; rate 0.0158 kg/ha): 2.0
ECHCG herbicidal rating ([5]; rate 0.0315 kg/ha): 2.0
ECHCG herbicidal rating ([5]; rate 0.0630 kg/ha): 1.0
Preemergence herbicidal rating TRZAWR ([6]; rate 0.0156 kg/ha): 0.0
Preemergence herbicidal rating TRZAWR ([6]; rate 0.0625 kg/ha): 3.0
Preemergence herbicidal rating TRZAWR ([6]; rate 0.1250 kg/ha): 7.0
Preemergence herbicidal rating TRZAWR ([6]; rate 0.2500 kg/ha): 9.0
CASOB herbicidal rating ([7]; rate 0.0158 kg/ha): 1.0
CASOB herbicidal rating ([7]; rate 0.0315 kg/ha): 1.0
CASOB herbicidal rating ([7]; rate 0.0630 kg/ha): 1.0
ORYSAT herbicidal rating ([8]; rate 0.0158 kg/ha): 2.0
ORYSAT herbicidal rating ([8]; rate 0.0315 kg/ha): 2.5
ORYSAT herbicidal rating ([8]; rate 0.0630 kg/ha): 4.5
Preemergence herbicidal rating ZEAMX ([9]; rate 0.0156 kg/ha): 0.0
Preemergence herbicidal rating ZEAMX ([9]; rate 0.0313 kg/ha): 7.0
Preemergence herbicidal rating ZEAMX ([9]; rate 0.0625 kg/ha): 8.0
Preemergence herbicidal rating ZEAMX ([9]; rate 0.1250 kg/ha): 9.0
Preemergence herbicidal rating ZEAMX ([9]; rate 0.2500 kg/ha): 9.0
CHEAL herbicidal rating ([10]; rate 0.0158 kg/ha): 6.0
CHEAL herbicidal rating ([10]; rate 0.0315 kg/ha): 6.0
CHEAL herbicidal rating ([10]; rate 0.0630 kg/ha): 9.0
Preemergence herbicidal rating ORYSAT ([11]; rate 0.0156 kg/ha): 0.0
Preemergence herbicidal rating ORYSAT ([11]; rate 0.0313 kg/ha): 0.0
Preemergence herbicidal rating ORYSAT ([11]; rate 0.0625 kg/ha): 3.0
Preemergence herbicidal rating ORYSAT ([11]; rate 0.1250 kg/ha): 3.0
Preemergence herbicidal rating ORYSAT ([11]; rate 0.2500 kg/ha): 8.0
Preemergence herbicidal rating GALAP ([12]; rate 0.0156 kg/ha): 0.0
Preemergence herbicidal rating GALAP ([12]; rate 0.0313 kg/ha): 9.0
Preemergence herbicidal rating GALAP ([12]; rate 0.0625 kg/ha): 9.0
Preemergence herbicidal rating GALAP ([12]; rate 0.1250 kg/ha): 9.0
Preemergence herbicidal rating GALAP ([12]; rate 0.2500 kg/ha): 9.0
Herbicidal rating CYPSE ([13]; rate 0.0313 kg/ha): 0.0
Herbicidal rating CYPSE ([13]; rate 0.0625 kg/ha): 0.0
Herbicidal rating CYPSE ([13]; rate 0.1250 kg/ha): 0.0
Herbicidal rating CYPSE ([13]; rate 0.2500 kg/ha): 9.0
Preemergence herbicidal rating SETVI ([14]; rate 0.0156 kg/ha): 0.0
Preemergence herbicidal rating SETVI ([14]; rate 0.0313 kg/ha): 9.0
Preemergence herbicidal rating SETVI ([14]; rate 0.0625 kg/ha): 9.0
Preemergence herbicidal rating SETVI ([14]; rate 0.1250 kg/ha): 9.0
Preemergence herbicidal rating SETVI ([14]; rate 0.2500 kg/ha): 9.0

CCOC(=O)CN1C(=O)C(CC)SC1=Nc1cc(-n2c(=O)cc(C(F)(F)F)n(C)c2=O)c(F)cc1Cl (stereo not shown) [Compound 13, Ethyl 2-{{2-chloro-5-[3,6-dihydro-3-methyl-2,6-dioxo-4-(trifluoromethyl)-1(2H)-pyrimidinyl]-4-fluorophenyl}imino}-5-ethyl-4-oxo-3-thiazolidineacetate]
Herbicidal rating SAGPY ([1]; 0.0156 kg/ha): 0.0
Herbicidal rating SAGPY ([1]; 0.0313 kg/ha): 0.0
Herbicidal rating SAGPY ([1]; 0.0625 kg/ha): 0.0
Herbicidal rating SAGPY ([1]; 0.1250 kg/ha): 0.0
Herbicidal rating SAGPY ([1]; 0.2500 kg/ha): 0.0
GLXMAW preemergence herbicidal rating ([2]; rate 0.0156 kg/ha): 0.0
GLXMAW preemergence herbicidal rating ([2]; rate 0.0313 kg/ha): 0.0
GLXMAW preemergence herbicidal rating ([2]; rate 0.0625 kg/ha): 1.0
GLXMAW preemergence herbicidal rating ([2]; rate 0.1250 kg/ha): 2.0
GLXMAW preemergence herbicidal rating ([2]; rate 0.2500 kg/ha): 4.0
Herbicidal rating CYPIR ([3]; 0.0156 kg/ha): 0.0
Herbicidal rating CYPIR ([3]; 0.0313 kg/ha): 0.0
Herbicidal rating CYPIR ([3]; 0.0625 kg/ha): 0.0
Herbicidal rating CYPIR ([3]; 0.1250 kg/ha): 0.5
Herbicidal rating CYPIR ([3]; 0.2500 kg/ha): 1.0
Herbicidal rating MOOVA ([4]; 0.0156 kg/ha): 7.5
Herbicidal rating MOOVA ([4]; 0.0313 kg/ha): 9.0
Herbicidal rating MOOVA ([4]; 0.0625 kg/ha): 9.0
Herbicidal rating MOOVA ([4]; 0.1250 kg/ha): 9.0
Herbicidal rating MOOVA ([4]; 0.2500 kg/ha): 9.0
ECHCG herbicidal rating ([5]; rate 0.0156 kg/ha): 2.0
ECHCG herbicidal rating ([5]; rate 0.0313 kg/ha): 2.0
ECHCG herbicidal rating ([5]; rate 0.0625 kg/ha): 3.0
ECHCG herbicidal rating ([5]; rate 0.1250 kg/ha): 7.0
TRZAWR preemergence herbicidal rating ([6]; rate 0.0313 kg/ha): 1.0
TRZAWR preemergence herbicidal rating ([6]; rate 0.0625 kg/ha): 1.0
TRZAWR preemergence herbicidal rating ([6]; rate 0.1250 kg/ha): 4.0
TRZAWR preemergence herbicidal rating ([6]; rate 0.2500 kg/ha): 6.0
CASOB herbicidal rating ([7]; rate 0.0156 kg/ha): 0.0
CASOB herbicidal rating ([7]; rate 0.0313 kg/ha): 0.0
CASOB herbicidal rating ([7]; rate 0.0625 kg/ha): 3.0
CASOB herbicidal rating ([7]; rate 0.1250 kg/ha): 3.0
ORYSAT herbicidal rating ([8]; rate 0.0156 kg/ha): 1.5
ORYSAT herbicidal rating ([8]; rate 0.0313 kg/ha): 2.5
ORYSAT herbicidal rating ([8]; rate 0.0625 kg/ha): 2.5
ORYSAT herbicidal rating ([8]; rate 0.1250 kg/ha): 3.0
ZEAMX preemergence herbicidal rating ([9]; rate 0.0156 kg/ha): 0.0
ZEAMX preemergence herbicidal rating ([9]; rate 0.0313 kg/ha): 2.0
ZEAMX preemergence herbicidal rating ([9]; rate 0.0625 kg/ha): 4.0
ZEAMX preemergence herbicidal rating ([9]; rate 0.1250 kg/ha): 5.0
ZEAMX preemergence herbicidal rating ([9]; rate 0.2500 kg/ha): 7.0
CHEAL herbicidal rating ([10]; rate 0.0156 kg/ha): 9.0
CHEAL herbicidal rating ([10]; rate 0.0313 kg/ha): 8.0
CHEAL herbicidal rating ([10]; rate 0.0625 kg/ha): 9.0
CHEAL herbicidal rating ([10]; rate 0.1250 kg/ha): 9.0
ORYSAT preemergence herbicidal rating ([11]; rate 0.0156 kg/ha): 0.0
ORYSAT preemergence herbicidal rating ([11]; rate 0.0313 kg/ha): 0.0
ORYSAT preemergence herbicidal rating ([11]; rate 0.0625 kg/ha): 0.0
ORYSAT preemergence herbicidal rating ([11]; rate 0.1250 kg/ha): 3.0
ORYSAT preemergence herbicidal rating ([11]; rate 0.2500 kg/ha): 4.0
GALAP preemergence herbicidal rating ([12]; rate 0.0156 kg/ha): 0.0
GALAP preemergence herbicidal rating ([12]; rate 0.0313 kg/ha): 0.0
GALAP preemergence herbicidal rating ([12]; rate 0.0625 kg/ha): 0.0
GALAP preemergence herbicidal rating ([12]; rate 0.1250 kg/ha): 0.0
GALAP preemergence herbicidal rating ([12]; rate 0.2500 kg/ha): 0.0
Herbicidal rating CYPSE ([13]; rate 0.0313 kg/ha): 0.0
Herbicidal rating CYPSE ([13]; rate 0.0625 kg/ha): 0.0
Herbicidal rating CYPSE ([13]; rate 0.1250 kg/ha): 0.0
Herbicidal rating CYPSE ([13]; rate 0.2500 kg/ha): 0.0
SETVI preemergence herbicidal rating ([14]; rate 0.0156 kg/ha): 2.5
SETVI preemergence herbicidal rating ([14]; rate 0.0313 kg/ha): 4.5
SETVI preemergence herbicidal rating ([14]; rate 0.0625 kg/ha): 9.0
SETVI preemergence herbicidal rating ([14]; rate 0.1250 kg/ha): 9.0
SETVI preemergence herbicidal rating ([14]; rate 0.2500 kg/ha): 9.0
